Source: patent US20050101595A1, “N-containing cycloalkyl-substituted amino-thiazole derivatives and pharmaceutical compositions for inhibiting cell proliferation and methods for their use” (PFIZER INC., priority 2003, published 2005)
Like-named read-outs stand apart in the source and are kept apart here.

Experiments:
CDK2/Cyclin A = CDK2/Cyclin A (Homo sapiens, UniProt P24941); assay: Inhibition of CDK2/Cyclin A Retinoblastoma Kinase Activity; type: biochemical; details: for Ki: apparent Ki, CDK2/proteolyzed cyclin A, Rb fragment substrate, 25 μM ATP; for inhibition at 0.05 µM: read-out: % inhibition of CDK2 (@ 0.05 μM), compound at 0.05 μM
In short: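 Baculovirus-expressed CDK2 complexed with proteolyzed cyclin A (10 or 19 nM), Rb fragment substrate, 25 μM [32P/33P]ATP, HEPES pH 7.4, 30 °C for 60 or 75 min under initial-rate conditions. Filter capture and phosphorimager readout; apparent Ki fitted to competitive or tight-binding competitive inhibition.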

[1] = target: human CDK4 and genetically truncated (1-264) cyclin D3 (Homo sapiens, UniProt P11802); assay: Inhibition of CDK4/Cyclin D Retinoblastoma Kinase Activity; type: biochemical; details: apparent Ki, CDK4/truncated cyclin D3, Rb fragment substrate, 25 μM ATP
Protocol: Cyclin-dependent kinase activity was measured by quantifying the enzyme-catalyzed, time-dependent incorporation of radioactive phosphate from [^32P]ATP or [^33P]ATP into a protein substrate. Unless noted otherwise, assays were performed in 96-well plates in a total volume of 50 μL, in the presence of 10 mM HEPES (N-[2-hydroxyethyl]piperazine-N′-[2-ethanesulfonic acid]) (pH 7.4), 10 mM MgCl2, 25 μM adenosine triphosphate (ATP), 1 mg/mL ovalbumin, 5 μg/mL leupeptin, 1 mM dithiothreitol, 10 mM β-glycerophosphate, 0.1 mM sodium vanadate, 1 mM sodium fluoride, 2.5 mM ethylene glycol-bis(β-aminoethyl ether)-N,N,N′N′-tetraacetic acid (EGTA), 2% (v/v) dimethylsulfoxide, and 0.03-0.4 μCi [^32/33P]ATP per reaction. Reactions were initiated with enzyme, incubated at 30° C., and terminated after 20 minutes by the addition of ethylenediaminetetraacetic acid (EDTA) to 250 mM. The phosphorylated substrate was then captured on a nitrocellulose or phosphocellulose membrane using a 96-well filtration manifold, and unincorporated radioactivity was removed by repeated washing with 0.85% phosphoric acid. Radioactivity was quantified by exposing the dried membranes to a phosphorimager.
Inhibition was measured relative to control wells that contained all reaction components including 2% (v/v) DMSO but no compound, after subtraction of background radioactivity measured in the absence of enzyme. Apparent Ki values of discrete compounds were measured by assaying enzyme activity in the presence of different inhibitor compound concentrations and subtracting the background radioactivity measured in the absence of enzyme. The kinetic parameters (kcat, Km for ATP) were measured for each enzyme under the usual assay conditions by determining the dependence of initial rates on ATP concentration. Inhibition data were fit to an equation for competitive inhibition using Kaleidagraph (Synergy Software), or were fit to an equation for competitive tight-binding inhibition using the software KineTic (BioKin, Ltd.).
Inhibition of CDK4/Cyclin D Retinoblastoma Kinase Activity:
A complex of human CDK4 and genetically truncated (1-264) cyclin D3 was purified using traditional biochemical chromatographic techniques from insect cells that had been co-infected with the corresponding baculovirus expression vectors (see e.g., Meijer and Kim, “Chemical Inhibitors of Cyclin-Dependent Kinases,” Methods in Enzymol,. vol. 283 (1997), pp. 113-128.). The enzyme complex (5 nM) was assayed with 0.3-0.5 μg of purified recombinant retinoblastoma protein fragment (Rb) as a substrate. The engineered Rb fragment (residues 386-928 of the native retinoblastoma protein; 62.3 kDa) contains the majority of the phosphorylation sites found in the native 106-kDa protein, as well as a tag of six histidine residues for ease of purification. Phosphorylated Rb substrate was captured by microfiltration on a nitrocellulose membrane and quantified using a phosphorimager as described above. For measurement of tight-binding inhibitors, the assay duration was extended to 60 minutes, during which the time-dependence of product formation was linear and initial rate conditions were met.

HCT-116 cell line = assay: Inhibition of cell growth, tetrazolium salt (MTT) assay; type: cell-based; details: Homo sapiens, MTT; for IC50: HCT-116, 120 h, three to five days, read-out: HCT-116 IC50; for inhibition at 0.175 µM: HCT-116, HCT-116 cells, compound at 0.175 uM
In short: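 Cells in McCoy's 5A medium were left 4 h, then given graded compound concentrations in 0.5% (v/v) DMSO and incubated three to five days at 37° C (5% CO2). MTT was added to 0.2 mg/mL for 4 h more; DMSO-solubilized formazan was read at 540 nm against 0.5% DMSO-only controls.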

Chain of human CDK4 and genetically truncated (1-264) cyclin D3 (P11802 whole entry, the tested form may be a part): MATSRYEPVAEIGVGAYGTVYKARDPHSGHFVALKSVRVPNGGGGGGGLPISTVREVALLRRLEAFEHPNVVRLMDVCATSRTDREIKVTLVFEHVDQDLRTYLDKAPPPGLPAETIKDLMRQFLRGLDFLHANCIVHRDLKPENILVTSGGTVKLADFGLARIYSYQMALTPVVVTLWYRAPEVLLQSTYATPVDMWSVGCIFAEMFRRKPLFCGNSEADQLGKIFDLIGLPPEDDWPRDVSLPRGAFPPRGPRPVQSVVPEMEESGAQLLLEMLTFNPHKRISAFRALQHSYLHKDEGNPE
Chain of human CDK4 and genetically truncated (1-264) cyclin D3 (P30281 1-264 partner): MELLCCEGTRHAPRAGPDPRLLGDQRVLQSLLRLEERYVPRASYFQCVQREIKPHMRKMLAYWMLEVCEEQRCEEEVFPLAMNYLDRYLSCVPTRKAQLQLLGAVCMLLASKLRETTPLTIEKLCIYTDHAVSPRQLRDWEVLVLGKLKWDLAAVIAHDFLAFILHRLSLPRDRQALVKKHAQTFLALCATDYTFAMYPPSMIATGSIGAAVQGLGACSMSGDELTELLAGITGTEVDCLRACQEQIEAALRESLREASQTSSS

Ki (CDK2/Cyclin A) [nM]	IC50 (HCT-116 cell line; first HCT-116 column (c4)) [nM]	inhibition at 0.05 µM (CDK2/Cyclin A) [%]	Structure (SMILES)	inhibition at 0.175 µM (HCT-116 cell line) [%]	other results
190	–	–	CCOC(=O)N1CCC(Nc2nc(N)c(C(=O)c3c(F)cccc3F)s2)CC1 [Example A1, 4-[4-Amino-5-(2,6-difluoro-benzoyl)-thiazol-2-ylamino]-piperidine-1-carboxylic Acid Ethyl Ester]	–	Ki [1]: 82 nM
> 5000	–	–	CC1(C)CC(Nc2nc(N)c(C(=O)c3c(F)cccc3F)s2)CC(C)(C)N1 [Example A2, [4-Amino-2-(2,2,6,6-tetramethyl-piperidin-4-ylamino)-thiazol-5-yl]-(2,6-difluoro-phenyl)-methanone]	–	Ki [1]: > 2000 nM
1000	–	–	Nc1nc(NC2CCNCC2)sc1C(=O)c1c(F)cccc1F [Example A6, [4-Amino-2-(piperidin-4-ylamino)-thiazol-5-yl]-(2,6-difluoro-phenyl)-methanone]	–	Ki [1]: 830 nM
–	82	–	CC(=O)/C=C/C(=O)N1CCC(Nc2nc(N)c(C(=O)c3c(F)cccc3F)s2)CC1 [Example D16, 1-{4-[4-Amino-5-(2,6-difluoro-benzoyl)-thiazol-2-ylamino]-piperidin-1-yl}-pent-2(E)-ene-1,4-dione]	–	Ki [1]: 140 nM; IC50 (HCT-116 cell line; second HCT-116 column (c5)): 150 nM
–	–	84	COC(=O)C1CCN(CCCS(=O)(=O)N2CCC(Nc3nc(N)c(C(=O)c4c(F)cccc4F)s3)CC2)C1 (centres unmarked) [Example V160]	0	–
–	–	88	Nc1nc(NC2CCN(S(=O)(=O)CCCNC3CCSCC3)CC2)sc1C(=O)c1c(F)cccc1F [Example V161]	2	–
–	–	83	Nc1nc(NC2CCN(S(=O)(=O)CCCNC3CCCNC3=O)CC2)sc1C(=O)c1c(F)cccc1F (centres unmarked) [Example V162]	9	–
–	–	83	Nc1nc(NC2CCN(S(=O)(=O)CCCNCC3COCCO3)CC2)sc1C(=O)c1c(F)cccc1F (centres unmarked) [Example V163]	2	–
–	–	85	Nc1nc(NC2CCN(S(=O)(=O)CCCNCCC3CCOCC3)CC2)sc1C(=O)c1c(F)cccc1F [Example V164]	0	–
–	–	93	Nc1nc(NC2CCN(S(=O)(=O)CCCNCc3ncccc3O)CC2)sc1C(=O)c1c(F)cccc1F [Example V165]	6	–
–	–	72	Nc1nc(NC2CCN(S(=O)(=O)CCCN3CCNC(=O)C3)CC2)sc1C(=O)c1c(F)cccc1F [Example V166]	3	–
–	–	83	Nc1nc(NC2CCN(S(=O)(=O)CCCN3CCCC(F)(F)C3)CC2)sc1C(=O)c1c(F)cccc1F [Example V167]	0	–
–	–	83	Nc1nc(NC2CCN(S(=O)(=O)CCCN3CCC(F)(F)CC3)CC2)sc1C(=O)c1c(F)cccc1F [Example V168]	37	–
–	–	76	Nc1nc(NC2CCN(S(=O)(=O)CCCNCc3ccc[nH]c3=O)CC2)sc1C(=O)c1c(F)cccc1F [Example V169]	25	–
–	–	82	Nc1nc(NC2CCN(S(=O)(=O)CCCN[C@H]3CC[C@@H](CO)CC3)CC2)sc1C(=O)c1c(F)cccc1F [Example V170]	14	–
–	–	81	COC1CCN(CCCS(=O)(=O)N2CCC(Nc3nc(N)c(C(=O)c4c(F)cccc4F)s3)CC2)CC1 [Example V171]	65	–
–	–	81	CC1=NNC(=O)C1CNCCCS(=O)(=O)N1CCC(Nc2nc(N)c(C(=O)c3c(F)cccc3F)s2)CC1 (centres unmarked) [Example V172]	11	–
–	–	85	Cc1c(CNCCCS(=O)(=O)N2CCC(Nc3nc(N)c(C(=O)c4c(F)cccc4F)s3)CC2)cnn1C [Example V173]	0	–
–	–	84	Cc1nnc(CCNCCCS(=O)(=O)N2CCC(Nc3nc(N)c(C(=O)c4c(F)cccc4F)s3)CC2)[nH]1 [Example V174]	26	–
–	–	78	Cc1nnc(CCNCCCS(=O)(=O)N2CCC(Nc3nc(N)c(C(=O)c4c(F)cccc4F)s3)CC2)o1 [Example V175]	5	–
–	–	73	Cc1nnc(CN(C)CCCS(=O)(=O)N2CCC(Nc3nc(N)c(C(=O)c4c(F)cccc4F)s3)CC2)o1 [Example V176]	0	–
17	90	–	C=C(C)CN(C)CCCS(=O)(=O)N1CCC(Nc2nc(N)c(C(=O)c3c(F)cccc3F)s2)CC1 [Example V177, (4-Amino-2-{[1-({3-[methyl(2-methyl-2-propen-1-yl)amino]propyl}sulfonyl)-4-piperidinyl]amino}-1,3-thiazol-5-yl)(2,6-difluorophenyl)methanone.]	–	–
4.6	80	–	Nc1nc(NC2CCN(S(=O)(=O)CCCNCc3cccc(F)c3)CC2)sc1C(=O)c1c(F)cccc1F [Example V178, (4-Amino-2-{[1-({3-[(3-fluorobenzyl)amino]propyl}sulfonyl)-4-piperidinyl]amino}-1,3-thiazol-5-yl)(2,6-difluorophenyl)methanone.]	–	–
11	170	–	CN(CCCS(=O)(=O)N1CCC(Nc2nc(N)c(C(=O)c3c(F)cccc3F)s2)CC1)Cc1ccco1 [Example V179, (4-Amino-2-{[1-({3-[(2-furylmethyl)(methyl)amino]propyl}sulfonyl)-4-piperidinyl]amino}-1,3-thiazol-5-yl)(2,6-difluorophenyl)methanone.]	–	–
4	90	–	Cc1cccc(CNCCCS(=O)(=O)N2CCC(Nc3nc(N)c(C(=O)c4c(F)cccc4F)s3)CC2)c1 [Example V180, (4-Amino-2-{[1-({3-[(3-methylbenzyl)amino]propyl}sulfonyl)-4-piperidinyl]amino}-1,3-thiazol-5-yl)(2,6-difluorophenyl)methanone.]	–	–
6.5	60	–	CN(CCCS(=O)(=O)N1CCC(Nc2nc(N)c(C(=O)c3c(F)cccc3F)s2)CC1)Cc1ccccc1 [Example V181, (4-Amino-2-{[1-({3-[benzyl(methyl)amino]propyl}sulfonyl)-4-piperidinyl]amino}-1,3-thiazol-5-yl)(2,6-difluorophenyl)methanone.]	–	–
4.7	70	–	Nc1nc(NC2CCN(S(=O)(=O)CCCNCc3ccc(F)cc3)CC2)sc1C(=O)c1c(F)cccc1F [Example V182, (4-Amino-2-{[1-({3-[(4-fluorobenzyl)amino]propyl}sulfonyl)-4-piperidinyl]amino}-1,3-thiazol-5-yl)(2,6-difluorophenyl)methanone.]	–	–
4	90	–	Nc1nc(NC2CCN(S(=O)(=O)CCCNCc3ccccc3F)CC2)sc1C(=O)c1c(F)cccc1F [Example V183, (4-Amino-2-{[1-({3-[(2-fluorobenzyl)amino]propyl}sulfonyl)-4-piperidinyl]amino}-1,3-thiazol-5-yl)(2,6-difluorophenyl)methanone.]	–	–
3.6	60	–	Cc1ccccc1CNCCCS(=O)(=O)N1CCC(Nc2nc(N)c(C(=O)c3c(F)cccc3F)s2)CC1 [Example V184, (4-Amino-2-{[1-({3-[(2-methylbenzyl)amino]propyl}sulfonyl)-4-piperidinyl]amino}-1,3-thiazol-5-yl)(2,6-difluorophenyl)methanone.]	–	–
